Assays:
Homo sapiens = species: Homo sapiens; experiment: Selectivity ratio of Ki for human CB1 receptor to Ki for human CB2 receptor
Cannabinoid receptor 2 = Cannabinoid receptor 2 (Homo sapiens, UniProt P34972); experiment: Displacement of [3H]CP-55940 from human CB2 receptor expressed in CHO cells; type: cell-based
Cannabinoid receptor 1 [1] = target: T1, Cannabinoid receptor 1 (Homo sapiens, UniProt P21554); experiment: Antagonist activity at human CB1 receptor expressed in CHO cells assessed as inhibition of CP-55940-induced [3H]arachidonic acid release; type: functional, cell-based; conditions: read-out: pA2 (converted)
Cannabinoid receptor 1 [2] = target: T1, Cannabinoid receptor 1; experiment: Displacement of [3H]CP-55940 from human CB1 receptor expressed in CHO cells; type: cell-based

T1 sequence (P21554 whole entry): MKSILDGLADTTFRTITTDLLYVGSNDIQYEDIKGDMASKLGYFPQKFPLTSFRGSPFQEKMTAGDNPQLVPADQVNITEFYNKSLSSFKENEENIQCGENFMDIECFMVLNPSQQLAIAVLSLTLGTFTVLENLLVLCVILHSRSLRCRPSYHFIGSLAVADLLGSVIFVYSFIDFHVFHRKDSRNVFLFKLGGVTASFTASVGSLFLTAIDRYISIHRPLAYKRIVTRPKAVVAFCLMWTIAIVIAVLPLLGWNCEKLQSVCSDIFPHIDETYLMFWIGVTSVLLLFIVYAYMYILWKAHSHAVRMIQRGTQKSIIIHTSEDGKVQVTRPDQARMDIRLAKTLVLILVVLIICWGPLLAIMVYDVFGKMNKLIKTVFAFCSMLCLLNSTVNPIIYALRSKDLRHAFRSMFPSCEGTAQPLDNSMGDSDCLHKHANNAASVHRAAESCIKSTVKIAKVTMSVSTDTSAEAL
Cannabinoid receptor 2, sequence (P34972 whole entry): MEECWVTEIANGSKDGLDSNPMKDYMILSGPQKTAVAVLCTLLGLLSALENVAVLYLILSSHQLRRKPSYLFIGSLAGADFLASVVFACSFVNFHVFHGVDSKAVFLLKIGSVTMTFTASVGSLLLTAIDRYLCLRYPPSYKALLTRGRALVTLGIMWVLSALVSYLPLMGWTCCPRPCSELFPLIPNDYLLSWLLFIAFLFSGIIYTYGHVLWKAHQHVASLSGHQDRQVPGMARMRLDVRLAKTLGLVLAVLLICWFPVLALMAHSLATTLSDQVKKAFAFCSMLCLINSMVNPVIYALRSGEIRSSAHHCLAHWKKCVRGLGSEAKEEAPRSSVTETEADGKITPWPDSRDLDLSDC

SMILES | Ratio Ki (Homo sapiens) | Ki (Cannabinoid receptor 2) [nM] | Kb (Cannabinoid receptor 1 [1]) [nM] | Ki (Cannabinoid receptor 1 [2]) [nM]
CN=C(NS(=O)(=O)N1CCC(F)(F)CC1)N1CC(c2ccccc2)C(c2ccc(Cl)cc2)=N1 (stereo not given) | – | 219 | 0.631 | 12.2
CN/C(=N\S(=O)(=O)N1CCC(F)(F)CC1)N1CCC(c2ccccc2)C(c2ccc(Cl)cc2)=N1 (stereo not given) | 5 | – | – | –
CN/C(=N\S(=O)(=O)c1ccc(Cl)cc1)N1CCC(c2ccccc2)C(c2ccc(Cl)cc2)=N1 (stereo not given) | 5 | 318 | 1 | 43
CNC(=NS(=O)(=O)N1CCC(F)(F)CC1)N1CCC(c2ccccc2)C(c2ccc(Cl)cc2)=N1 (stereo not given) | – | 247 | 1 | 47

More lines, now with the values ahead:

Ratio Ki (Homo sapiens) | Ki (Cannabinoid receptor 2) [nM] | Kb (Cannabinoid receptor 1 [1]) [nM] | Ki (Cannabinoid receptor 1 [2]) [nM] | SMILES
5 | – | – | – | CN/C(=N\S(=O)(=O)N1CCCCC1)N1CCC(c2ccccc2)C(c2ccc(Cl)cc2)=N1 (stereo not given)
– | 571 | 2 | 74 | CNC(=NS(=O)(=O)N1CCCCC1)N1CCC(c2ccccc2)C(c2ccc(Cl)cc2)=N1 (stereo not given)

Source: ChEMBL document CHEMBL1155183, “Synthesis and SAR of 1,4,5,6-tetrahydropyridazines as potent cannabinoid CB1 receptor antagonists” (Bioorg Med Chem Lett, 2009)
